Test results published in US4786723A, “7-hydroxyguanine compounds, process for preparing said compounds, and anti-tumor agent containing the same” (Kanegafuchi Chemical Industry Co., Ltd., priority 1985, dated 1988).

How the values were obtained:
Acute toxicity = conditions: mouse, in vivo, ip; ICR male mice weighing 18-23 g, intraperitoneally administered for one week; read-out: 50% lethal toxicity (LD50)
Experimental: ICR male mice weighing 18-23 g were intraperitoneally administered with the test compounds for one week, and the 50% lethal toxicity (LD50 : mg/kg) was measured by a conventional method.

L-1210 leukemia = experiment: Anti-tumor activity against L-1210 leukemia in mice; type: in vivo, mouse; conditions: intraperitoneal, 5 days, BDF1 female mice
Experimental: Anti-tumor activity against L-1210 leukemia in mice
BDF1 female mice weighing 18-23 g (one group: 3 mice) were used. The mice were intraperitoneally inoculated with mouse L-1210 leukemia cells (1×10^5). […] As a control, 50 mM phosphate buffer (pH 7.4) without a test compound was intraperitoneally administered likewise. Based on the data, the life-prolongation ratio of the test compound was calculated.

SMILES	LD50 (Acute toxicity) [mg/kg]	Life-prolongation ratio (L-1210 leukemia; 1.0 mg/kg/day)	Life-prolongation ratio (L-1210 leukemia; 4.0 mg/kg/day)	Life-prolongation ratio (L-1210 leukemia; 16.0 mg/kg/day)
Nc1nc(O)c2c(n1)n([C@@H]1O[C@H](CO)[C@@H](O)[C@H]1O)c[n+]2[O-] [Compound A, 7-hydroxyguanine riboside]	192	128.9	148.2	148.2
Nc1nc(O)c2c(n1)n([C@H]1C[C@H](O)[C@@H](CO)O1)c[n+]2[O-] [Compound B, 7-hydroxyguanine deoxyriboside]	172	120.5	160.2	168.7
